Data taken from patent EP4810052A2, “HCRHR2 SELECTIVE POLYPEPTIDES” (Gubra A/S, priority 2023, dated 2026).
Starred links: 1 amine or outer side, 2 acyl side, 3 side chain; linkers in the order of their positions; H or OH if unused. Non-standard residues stand in square brackets, D forms with d. Residues, ends and D or L forms follow the SMILES beside them. Groups on a side chain read outwards from the residue. *: point of attachment. C20 diacid = O=C(O)CCCCCCCCCCCCCCCCCCC(=O)*; γGlu = O=C(O)[C@H](CCC(=O)[*:2])N[*:1]; NMeI = CC[C@H](C)[C@H](NC)C(=O)O; AEEA = NCCOCCOCC(=O)O

Key:
[1] = Size exclusion chromatography for high molecular weight products (HMWP); type: physicochemical; settings: for HMWP formation (SEC analysis) T14-T0 (%): 14 days; for HMWP formation (SEC analysis) T28-T0 (%): 28 days
Procedure: Dissolved samples were incubated for at least 2 h at room temperature on a rocking table. The main peak purity at time zero (T0) was determined using reversed phase chromatography. The samples were incubated at 40°C for 14 days (T14) and 28 days (T28). The samples were analyzed with reversed phase chromatography and size exclusion chromatography.
Size exclusion chromatography (SEC) was used as an analysis for the formation of high molecular weight products (HMWP, covalent dimers, trimers etc.,). SEC analyses was performed on Thermo Dionex Ultimate UHPLC system with UV detection at 215 nm) equipped with a SEC column (Waters BEH 125Å, 1.7 µm, 300mm x 4.6). Analysis was performed by isocratic elution using 60% buffer B (0.1% TFA in 5:95 H2O: acetonitrile) in buffer A (0.1% TFA in 95:5 H2O: acetonitrile) at a column temperature of 60° C over 20 min. Flowrate was 0.3 mL/min.
Chromatograms were integrated as HMWP (all peaks eluting before the main peak), main peak (assuming this is monomeric peptide) and if relevant LMWP (low molecular weight products, all peaks eluting after main peak). The amount of HMWP was reported as area relative to total area in percent.

[2] = Dynamic Light Scattering (DLS) of peptide oligomerisation/particle formation; type: physicochemical; settings: for PD (%) / Rh (nm): average of three replica
Procedure: Samples were prepared by dissolving 800 nmol of each peptide in 400 µl 50 mM phosphate pH 8.0 to a concentration of 2000 µM (ca 10 mg/ml). After fully dissolution for 2 hours on a rocking table, samples were adjusted to pH 7.5 and filtrated through a 0.2 µm Whatman Anotop filter. Comparators were commercially available liraglutide drug product (Victoza®, Novo Nordisk) pH 8.2, and an aliquot of this drug product adjusted to pH 6.7. These samples were filtrated through a 0.02 µm Whatman Anotop filter.
Samples were pipetted as triplicate of 30 µl to an Aurora 384 well microtiter plate, which was centrifuged for 2 minutes at 2200 rpm and then sealed with a Thermo sealing tape 235307. DLS measurements were done in a Wyatt DynaPro platereader III with the following parameters:
The microtiter plate was incubated in a Grant-bio Thermo Shaker PHMP-4 at 40°C with 700 rpm continuous shaking before subsequent DLS measurements. Data analysis was done using Wyatt Dynamics software ver. 7.10.1.21.
Samples were prepared and measured as described in procedure. The hydrodynamic radii (Rh) and associated polydispersity (PD) resulting from cumulant analysis (assuming one species) are shown in the Table 8 as averages of three replica. T0 indicates the measurement at time zero after sample preparation; T5 indicates the measurements of five days of incubation as described above.

hCRHR2a = molecular target: T1, hCRHR2a (Homo sapiens, UniProt Q13324); assay: cAMP potency, transiently transfected CHO-K1 cells, hCRHR2a; type: cell-based; settings: transiently transfected CHO-K1, average n=3; read-out: Transient cell system EC50 (nM) hCRHR 2a
T1 construct: DYK (FLAG); host or cells: CHO-K1, transiently transfected
T1 sequence (Q13324 1-411): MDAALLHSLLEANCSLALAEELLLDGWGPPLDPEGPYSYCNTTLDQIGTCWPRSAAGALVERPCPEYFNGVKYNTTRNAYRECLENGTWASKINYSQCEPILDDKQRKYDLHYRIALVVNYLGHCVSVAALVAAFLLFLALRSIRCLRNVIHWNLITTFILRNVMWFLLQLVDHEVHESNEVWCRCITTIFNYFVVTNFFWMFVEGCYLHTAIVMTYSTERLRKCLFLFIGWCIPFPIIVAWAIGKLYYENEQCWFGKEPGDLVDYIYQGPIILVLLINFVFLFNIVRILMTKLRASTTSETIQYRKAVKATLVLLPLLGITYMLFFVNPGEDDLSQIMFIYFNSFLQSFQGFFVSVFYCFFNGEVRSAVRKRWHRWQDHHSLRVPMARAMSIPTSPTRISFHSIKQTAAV

[3] = Body mass and body fat content in mouse model of diet-induced obesity (DIO); type: in vivo; settings: DIO mice; for Blood HbA1c / M. Gastrocnemius / M. Soleus / Body weight at termination / Fat mass change from baseline / Lean mass change from baseline / Relative body weight change at termination: Table 17 study; for Body weight at termination / Fat mass change from baseline / Lean mass change from baseline / Relative body weight change at termination: ± SEM
Procedure: SEQ ID NO: 3, SEQ ID NO: 6, SEQ ID NO: 238, SEQ ID NO: 16 and SEQ ID NO: 215 were assessed for their ability to reduce body mass and body fat content in a mouse model of diet-induced obesity (DIO).
Male C57BL/6JRj mice were obtained from JanVier (JanVier Labs, France) at 5 weeks of age. The animals were group-housed during obesity induction and then single housed 2 weeks prior to study start. They were housed under a 12/12 h dark-light cycle, light off at 3 PM. Room temperature was controlled to 22°C ± 1°C, with 60 % ± 20% humidity. For 22-23 weeks prior to treatment start and throughout the study, the animals had ad libitum access to high-fat diet (60% kcal fat, D12492, Research Diets) and tap water.
The animals were randomized according to lean mass (EchoMRI) and body weight. Animals were dosed subcutaneously […] for 30-32 days. In study 1, the animals were dosed with vehicle or SEQ ID NO: 3 (10, 30, 60 or 100 nmol/kg). In study 2, the animals were dosed with vehicle or SEQ ID NO: 6 (10 or 30 nmol/kg), SEQ ID NO: 238 (10 or 30 nmol/kg), SEQ ID NO: 16 (10 or 30 nmol/kg), SEQ ID NO: 215 (10 or 30 nmol/kg) or SEQ ID NO: 3 (30 nmol/kg).
Body weight and food intake were recorded daily until day 28 and body composition evaluated on day 26 using EchoMRI. At termination, blood for HbA1c analyses were collected and M. gastrocnemius and M. soleus were weighed.
Statistical significance was evaluated using One-way analysis of variance with Dunnett's multiple comparison test. P < 0.05 was considered statistically significant.

mCRHR2 = molecular target: T2, mCRHR2 (Mus musculus, UniProt Q60748); assay: cAMP potency, transiently transfected CHO-K1 cells, mCRHR2; type: cell-based; settings: transiently transfected CHO-K1, average n=3; read-out: Transient cell system EC50 (nM) mCRH R2
T2 construct: DYK (FLAG); host or cells: CHO-K1, transiently transfected
T2 sequence (Q60748 1-431 isoform Q60748-2): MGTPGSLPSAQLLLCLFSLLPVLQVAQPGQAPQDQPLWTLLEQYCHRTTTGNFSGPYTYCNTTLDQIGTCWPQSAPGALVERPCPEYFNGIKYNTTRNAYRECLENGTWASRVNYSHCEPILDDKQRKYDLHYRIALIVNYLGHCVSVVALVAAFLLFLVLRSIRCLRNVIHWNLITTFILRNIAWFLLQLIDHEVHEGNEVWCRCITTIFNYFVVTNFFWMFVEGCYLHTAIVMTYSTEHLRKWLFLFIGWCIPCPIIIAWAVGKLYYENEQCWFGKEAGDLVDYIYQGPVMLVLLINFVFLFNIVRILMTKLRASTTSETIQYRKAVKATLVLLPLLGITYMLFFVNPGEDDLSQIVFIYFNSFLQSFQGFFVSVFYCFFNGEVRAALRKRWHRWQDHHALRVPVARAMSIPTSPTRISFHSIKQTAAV
Procedure: Selected peptides were tested for potency on different species (mouse, rat, porcine) using transiently transfected CHO-K1 cells using the general procedure.

[4] = T0, time zero after sample preparation
[5] = T5, five days incubation at 40°C with continuous shaking

Compound: CC[C@H](C)[C@H](NC)C(=O)N[C@H](C(=O)N[C@@H](CC(C)C)C(=O)N[C@@H](CO)C(=O)N[C@@H](CC(C)C)C(=O)N[C@@H](CC(=O)O)C(=O)N[C@H](C(=O)N1CCC[C@H]1C(=O)N[C@H](C(=O)NCC(=O)N[C@@H](CC(C)C)C(=O)N[C@@H](CC(C)C)C(=O)N[C@@H](CCC(N)=O)C(=O)N[C@H](C(=O)N[C@@H](CC(C)C)C(=O)N[C@@H](CC(C)C)C(=O)N[C@@H](CCC(=O)O)C(=O)N[C@@H](CCC(N)=O)C(=O)N[C@@H](C)C(=O)N[C@@H](CCCNC(=N)N)C(=O)N[C@@H](C)C(=O)N[C@@H](CCCNC(=N)N)C(=O)N[C@@H](C)C(=O)N[C@@H](C)C(=O)N[C@@H](CCCNC(=N)N)C(=O)N[C@@H](CCC(=O)O)C(=O)N[C@@H](CCC(N)=O)C(=O)N[C@@H](C)C(=O)N[C@H](C(=O)N[C@@H](CCCCNC(=O)COCCOCCNC(=O)COCCOCCNC(=O)CC[C@H](NC(=O)CC[C@H](NC(=O)CCCCCCCCCCCCCCCCCCC(=O)O)C(=O)O)C(=O)O)C(=O)N[C@@H](CC(N)=O)C(=O)N[C@@H](C)C(=O)N[C@@H](CCC(=O)O)C(=O)N[C@H](C(=O)N[C@@H](CC(C)C)C(=O)N[C@@H](C)C(=O)N[C@@H](CCC(=O)O)C(=O)N[C@H](C(N)=O)C(C)C)[C@@H](C)CC)[C@@H](C)O)[C@@H](C)CC)[C@@H](C)CC)C(C)C)C(C)C [SEQ ID NO: 6] (H-[NMeI]VLSLDVPIGLLQILLEQARARAAREQATK([AEEA-AEEA-γGlu-γGlu-C20 diacid])NAEILAEV-NH2)
- HMWP formation (SEC analysis) T14-T0 (%) ([1]; pH 7.0, 40°C): -0.1%
- HMWP formation (SEC analysis) T28-T0 (%) ([1]; pH 7.0, 40°C): 0.1%
- HMWP formation (SEC analysis) T14-T0 (%) ([1]; pH 7.5, 40°C): -0.4%
- HMWP formation (SEC analysis) T28-T0 (%) ([1]; pH 7.5, 40°C): -0.4%
- HMWP formation (SEC analysis) T14-T0 (%) ([1]; pH 8.0, 40°C): -0.2%
- HMWP formation (SEC analysis) T28-T0 (%) ([1]; pH 8.0, 40°C): 0.0%
- particle size / hydrodynamic radii (DLS) ([2]; 2000 µM, pH 7.5, five days incubation at 40°C with continuous shaking): formed larger particles and several species (multimodal)
- PD (%) [2, 4]: 38.5%
- Rh (nm) [2, 4]: 5.8 nm
- PD (%) [2, 5]: Multimodal
- Rh (nm) [2, 5]: 30.6 nm
- EC50 (hCRHR2a): 0.023 nM
- relative body weight ([3]; 28 days, compared to vehicle): prolonged dose-dependent reduction
- Blood HbA1c ([3]; 10 nmol/kg): 4.0 ± 0.1 %
- M. Gastrocnemius ([3]; 10 nmol/kg): 0.18 ± 0.004 g
- M. Soleus ([3]; 10 nmol/kg): 0.012 ± 0.0008 g
- Body weight at termination ([3]; 10 nmol/kg): 42.6 ± 1.3 g
- Fat mass change from baseline ([3]; 10 nmol/kg): -7.0 ± 0.9 g
- Lean mass change from baseline ([3]; 10 nmol/kg): 0.1 ± 0.3 g
- Relative body weight change at termination ([3]; 10 nmol/kg): 89.1 ± 2.0 %
- Blood HbA1c ([3]; 30 nmol/kg): 4.1 ± 0.1 %
- M. Gastrocnemius ([3]; 30 nmol/kg): 0.18 ± 0.001 g
- M. Soleus ([3]; 30 nmol/kg): 0.013 ± 0.0004 g
- Body weight at termination ([3]; 30 nmol/kg): 38 ± 0.5 g
- Fat mass change from baseline ([3]; 30 nmol/kg): -10.7 ± 0.5 g
- Lean mass change from baseline ([3]; 30 nmol/kg): -0.1 ± 0.3 g
- Relative body weight change at termination ([3]; 30 nmol/kg): 79.3 ± 1.2 %
- EC50 (mCRHR2): 0.0043 nM
